Results from US5162347A, “Piperidine derivatives and therapeutic and preventive agents for arrhythmia containing same” (Eisai Co., Ltd., priority 1987, dated 1992).

Columns and labels:
[1] = tested on: isolated myocardium of guinea-pigs (right ventricular papillary muscles); assay: Effects on the action potential duration in the isolated myocardium of guinea-pigs; assay type: cell-based, guinea-pigs (male, Hartley strain); conditions: Cavia porcellus, 10 min, stimulated at 1 Hz, 37° C.; for APD90 prolongation (%) at 10 µM / inhibition at 10 µM: 10^-5 M, another 10 min; for inhibition at 10 µM / inhibition at 1 µM: read-out: Vmax inhibition (%); for APD90 prolongation (%) at 1 µM / inhibition at 1 µM: 10^-6 M, first 10 min
Experimental: Right ventricular papillary muscles were isolated from male guinea-pigs of Hartley strain weighing 300 to 400 g and fixed at the bottom of an acrylic bath with pins. They were perfused with Tyrode solution kept at 37° C. and saturated with a mixture of 95% O2 and 5% CO2. The muscles were stimulated at 1 Hz with rectangular pulses of 1 msec duration and supramaximal voltage. Action potentials were recorded using conventional glass microelectrodes filled with 3M KCl. The duration of the action potential and the maximum velocity of the upstroke of the action potential (Vmax) were determined. Each of the test compounds was included in Tyrode solution at 10^-6 or 10^-5 M and perfused.
The test compounds shown in Example 1 were as follows. Sotalol, a beta-adrenoceptor antagonist was employed as the reference drug because this compound is known to prolong the duration of the myocardial action potential.
Results are shown below in terms of APD90 prolongation (%) and Vmax inhibition (%).

[2] = Acute toxicity test, intravenous injection in mice; conditions: mouse, in vivo, male ddy mice weighing 20 to 30 g
Experimental: Acute toxicity tests of typical compounds (the above-mentioned compounds A and B) of the present invention were conducted by applying them to male ddy mice weighing 20 to 30 g by intravenous injection.
Acute toxicity tests of typical compounds (the above-mentioned compounds A to E) of the present invention were conducted by applying them to male ddy mice weighing 20 to 30 g by intravenous injection.

Compound	APD90 prolongation (%) at 10 µM [1] [%]	inhibition at 10 µM [1] [%]	APD90 prolongation (%) at 1 µM [1] [%]	inhibition at 1 µM [1] [%]	LD50 [2] [mg/kg]
CC(C)NCC(O)c1ccc(NS(C)(=O)=O)cc1 (centres unmarked) [Sotalol, reference compound]	7	0	0	0	–
CS(=O)(=O)Nc1ccc(SC2CCN(CCc3cccnc3)CC2)cc1 [compound (1) A]	20	0	11	0	180 to 400
CS(=O)(=O)Nc1ccc([S+]([O-])C2CCN(CCc3cccnc3)CC2)cc1 (centres unmarked) [compound (1) B]	40	0	14	0	180 to 400
Cc1cccc(CCN(C)CC(=O)c2ccc(NS(C)(=O)=O)cc2)n1 [compound (2) A]	16	0	12	0	–
Cc1cccc(CCN(C)CCC(=O)c2ccc(NS(C)(=O)=O)cc2)n1 [compound (2) B]	19	0	18	0	–
Cc1cccc(CCN(C)CCCC(=O)c2ccc(NS(C)(=O)=O)cc2)n1 [compound (2) C]	31	0	17	0	–
CCN(CCCC(=O)c1ccc(NS(C)(=O)=O)cc1)CCc1cccc(C)n1 [compound (2) D]	31	0	17	0	–
Cc1cccc(CCN(C)CCCCC(=O)c2ccc(NS(C)(=O)=O)cc2)n1 [compound (2) E]	27	0	14	0	–
CS(=O)(=O)Nc1ccc(C(CO)N2CCC(C(=O)c3ccc(F)cc3)CC2)cc1 (centres unmarked) [compound (3) A]	25	0	16	0	180 to 400
CS(=O)(=O)Nc1ccc(C(CO)N2CCC(C(=O)c3ccc(Cl)cc3)CC2)cc1 (centres unmarked) [compound (3) B]	11	0	13	0	180 to 400
